{"source": "patent US20190167676A1", "about": "“METHODS FOR IMPROVING RESISTANCE TO SKELETAL MUSCLE FATIGUE” (Cytokinetics, Inc., priority 2012, published 2019)", "key": {"healthy rats": {"system": "healthy rats", "test": "Rotarod running assay", "assay_type": "in vivo, rat", "conditions": "control treatments by oral gavage: 300 mg/kg (60 min), caffeine 10 mg/kg (30 min), phosphoserine 1000 mg/kg (24 hours prior)", "procedure": "Female Sprague Dawley rats (210-260 g) were obtained from Charles River Laboratories and acclimated in the test facility for a minimum of six days prior to the start of the study. All rats were trained the day prior to compound administration. Training consisted of placing the rats on the rotating drum (rod), starting at a low constant speed (10 RPM). The rats were acclimated to walk on the drum for 5 minutes before resting. A second training session of an increasing speed from 14-16 RPM was initiated after all rats in the experimental group had finished the first training session. […] On the day of the experiment animals were dosed thirty minutes prior to start of test. The test began with a 5 minute primer session, whereby animals were run at an increasing speed from 14-16 RPM over 5 minutes. Rats were then run at a constantly accelerating rate from 12 RPM to 25 RPM over the course of 10 minutes. […] Time to fall was recorded, with the test being terminated at 900 seconds. Compound A was administered via oral gavage 30 minutes prior to assessment. Each dose was formulated as a suspension containing 0.2% Tween 80, 0.5% HPMC and water. Dose volume was 5 mL/kg. Vehicle (0.2% Tween 80, 0.5% HPMC and water) was administered similarly. Control treatments were chosen based on association with amelioration of central fatigue (caffeine, Davis 2003), muscular fatigue (creatine, Boyadjiev, 2007) and dual central/muscular fatigue (phosphoserine, […] 1976)."}, "[1]": {"system": "rat plantarflexor muscles", "test": "Rat plantar flexor force and power in situ", "assay_type": "in vivo", "description": "Rats were placed under anesthesia using isoflurane and the sciatic nerve of the experimental leg exposed. The rat was then placed on the platform of an Aurora in-situ muscle analysis rig (806C), maintained at body temperature via a circulating water system. The knee was immobilized in a clamp between two sharpened screws and the foot attached securely to the footplate of a force transducer (Aurora Scientific, Ontario, Canada) using laboratory tape. The muscle was stimulated directly via the sciatic nerve. For isolation of the nerve, a 1 cm incision was made at the upper thigh and the overlying muscle was dissected to expose an approximate 5 mm stretch of the sciatic nerve. This was then dissected free of surrounding connective tissue and a pair of stainless steel needle electrodes (0.10 mm) were hooked around the exposed nerve. The peroneal branch was severed to remove innervation to the plantar-extensor muscle groups. Muscle contractile properties were assessed by applying an electrical current to the nerve and recording the force generated by the muscle via a servomotor. Isokinetic contractile properties were assessed as force generated during a pre-programmed movement of the footplate. Footplate movements were 0.7 radians in size ([…]).\nSolutions of Compound A (50% PEG300/10% EtOH/40% cavitron formulation) were administered via a femoral vein catheter as a single slow bolus over a 2 min period, with a maximal dosage volume of 5 ml/Kg. During the experiment, blood was drawn via the tail vein for compound concentration analysis. At the end of each assay, the length and weight of the muscle was recorded, and measured force normalized to the mass of the muscle (N/g).\nCompound A increased force generation throughout the curve to generate a total of 55% more work over the 300 second period, while maintaining a similar profile to that of the vehicle.\nThe same protocol was repeated with a second skeletal muscle troponin activator, 1-((1R)-1-methylpropyl)-6-chloro-7-pyrazolylimidazo[4,5-b]pyridin-2-ol (Compound B). Compound B and analogous skeletal muscle troponin activators are disclosed in U.S. Pat. No. 7,989,469. […] 0.7 radian displacement and stimulation frequency calculated to provide 50% of maximum isokinetic tension. Compound B maintained force generation throughout the curve, at almost 50% of vehicle stimulation frequency, to generate the same total work over the 300 second period, while maintaining a similar profile to that of the vehicle."}, "mouse EDL muscle": {"system": "mouse EDL muscle", "conditions": "cited from earlier work"}, "LAD-HF rats": {"system": "LAD-HF rats", "test": "Fatiguing rotarod in rat heart failure model", "assay_type": "in vivo", "description": "To determine the effect of Compound C on skeletal muscle function in patients with heart failure, a rat heart failure model was used. Female Sprague Dawley rats (<250 g) were obtained from Charles River Laboratories having the left anterior descending coronary artery ligated prior to shipping (LAD-HF rats). Sham operated controls were also obtained from the same surgical preparation (sham controls). All rats underwent assessment of cardiac function after a three day acclimation to provide baseline levels. Animals were assessed on weeks 4, 7 and 10 to observe the progress of exercise intolerance at least 3 days after echocardiography. Exercise performance was assessed using the fatiguing rotarod protocol described in Example 11 (5 minute run ramping from 14-16 RPM, followed by run time assessment during a 10 minute ramp from 12 to 25 RPM). LAD-HF rats were selected based on a left ventricular fractional shortening <25% and reduced run time compared to sham controls. […] Decreases in fractional shortening (determined by echocardiography) were apparent.\nAnimals were assigned in a cross-over fashion whereby half of the animals received Compound C (10 mg/kg PO) and half received vehicle (19.3%PEG: 80% (15%) captisol, pH3, 0.2% tween, 0.5% HPMC) via oral gavage 30 minutes prior to rotarod assessment on Day 1 and then the opposite treatment on Day 2."}, "[2]": {"test": "Plasma levels at end of rotarod experiment", "assay_type": "in vivo, rat", "conditions": "end of experiment (not at Cmax)", "procedure": "The effect of the fast skeletal muscle troponin activator 1-(2-(((trans)-3-fluoro-1-(3-fluoropyridin-2-yl)cyclobutyl)methylamino)pyrimidin-5-yl)-1H-pyrrole-3-carboxamide (Compound C) on muscle fatigue in healthy rats was determined by a rotarod running time test. […] On the day of the assessment, the animals began by running at an increasing speed from 14-16 RPM over 5 minutes. Rats were then run at a constantly accelerating rate from 12 RPM to 25 RPM over the course of 10 minutes. Time to fall was recorded, with the test being terminated at 600 seconds. The plasma levels were determined at the end of the experiments (not at Cmax). The plasma levels for the indicated doses were determined to be the following: […]"}, "[3]": {"system": "extensor digitorum longus (EDL) muscles", "test": "In situ EDL force-frequency in sham and LAD-HF rats", "assay_type": "in vivo, rat", "conditions": "3 mg/kg IV, sham and LAD-HF groups", "procedure": "An in situ assessment of selected animals from Example 12 was run at the end of the study to assess functional characteristics of extensor digitorum longus (EDL) muscles in Sham and LAD animals. Effects with and without Compound C (3 mg/kg IV) were assessed.\nRats were placed under anesthesia and the skin around the experimental leg was removed. The distal end of the extensor digitorum longus (EDL) muscle and its associated tendon were then isolated. The rat was then placed on the platform of an Aurora in situ muscle analysis rig wherein the knee was immobilized and the distal tendon cut and tied to the arm of a force transducer. The muscle was stimulated directly via steel needle electrodes contacting the peroneal nerve. Muscle contractile properties were assessed by applying an electrical current to the nerve and recording the force generated by the muscle via a servomotor. The muscle length was adjusted to produce the maximum isometric force (Lo) after sub-maximal stimulation (30 Hz, 1 ms pulses, 350 ms train duration). Once Lo had been established, the nerve was stimulated every 2 minutes with a 30 Hz train (1 ms stimuli, 350 ms duration) for the course of the experiment.\nOnce the preparation was stable, a force frequency relationship was assessed, then Compound C (3 mg/kg IV) or vehicle was injected and a second force frequency was assessed. […]"}, "[4]": {"system": "sham and LAD-HF diaphragm fibers", "test": "Skinned diaphragm fiber Ca2+ sensitivity", "design": "species or system rat", "conditions": "3 μM", "procedure": "(§1) Muscle tissue for in vitro skinned fiber studies were prepared using an adapted protocol based on Lynch and Faulkner (Am J Physiol 275:C1548-54 (1998)). Briefly, rat muscle from sham and HF animals were rapidly dissected, rinsed in physiological saline, and then incubated in skinning solution (125 mM K-propionate, 20 mM imidazole, 5 mM EGTA, 2 mM MgCl2, 2 mM ATP, pH 7.0) supplemented with 0.5% TritonX-100 (Sigma Chemicals, St. Louis, Mo.) for 30 minutes at 4° C. The buffer was then changed to a storage solution (125 mM K-propionate, 20 mM imidazole, 5 mM EGTA, 2 mM MgCl2, 2 mM ATP, glycerol 50%, pH 7.0) and stored at −20° C. for later use.\n(§2) For skinned fiber analysis, single muscle fibers were dissected from larger segments of tissue in rigor buffer at 4° C. ([…], pH 7.0). They were then suspended between a 400 A force transducer (Aurora Scientific, Ontario, Canada) and a fixed post and secured with 2-4 μl of a 5% solution of methylcellulose in acetone. […] Tension was generated in each fiber by changing fiber buffer over to relax buffer supplemented with 1 mM EGTA and a 15 mM solution of calcium chloride and calculated using the web resource (www.stanford.edu/˜cpatton/webmaxc/webmaxcS.htm). […]"}, "[5]": {"system": "sham and LAD-HF diaphragm strips", "test": "Diaphragm force-frequency by electrical field stimulation in organ bath", "design": "species or system rat", "conditions": "30 μM, sham and LAD-HF diaphragms, submaximal frequencies of electrical stimulation", "procedure": "Diaphragm contractile force was measured by electrical field stimulation in an organ bath system based on a standard operating protocol adapted from the Treat NMD website (http://www.treat-nmd.eu/downloads/file/sops/dmd/MDX/DMD M.1.2.002.pdf). The diaphragm and the last floating rib from sham and HF animals were excised, rinsed in physiological saline, and placed in a temperature controlled water-jacketed chamber (26-27° C.) containing Krebs-Henseleit Buffer (118 mM NaCl, 10 mM glucose, 4.6 mM KCl, 1.2 mM KH2PO4, 1.2 mM MgSO4*7 H2O, 24.8 mM NaHCO3, 2.5 mM CaCl2, 50 mg/L tubocurarine, 50 U/L insulin, pH:7.4) that was continuously aerated with 95% O2/[…]. After 10 minutes of equilibration, vertical strips spanning the floating rib to the central tendon were cut from diaphragms. Braided silk sutures were tied at the central tendon and floating rib and attached to a force transducer between two platinum electrodes. Diaphragm strips were set to a length that produced maximum twitch tension (Lo). The force-frequency profile of the muscle was obtained by stimulating the muscle at frequencies between 10-150 Hz (Grass Stimulator, 800 ms train duration, 0.6 ms pulse width). Compound C was suspended in DMSO and directly added into the bath."}, "sham and HF EDL fibers": {"system": "sham and HF EDL fibers", "test": "Skinned EDL fiber force-Ca2+ relationship", "design": "species or system rat", "conditions": "3 μM, sham and HF EDL muscle", "procedure": "as §1, §2"}}}
{"compound": "N[C@@H](COP(=O)(O)O)C(=O)O", "note": "[phosphoserne, phosphoserine, reference compound]", "values": [{"measurement": "running time vs vehicle", "setting": "healthy rats", "result": "no significant difference"}]}
{"compound": "CN(CC(=O)O)C(=N)N", "note": "[creatine, reference compound]", "values": [{"measurement": "running time vs vehicle", "setting": "healthy rats", "result": "no significant difference"}]}
{"compound": "1-((1R)-1-methylpropyl)-6-chloro-7-pyrazolylimidazo[4,5-b]pyridin-2-ol [Compound B]", "values": [{"measurement": "isokinetic force frequency relationship", "setting": "[1]; at 3.1 radians/s", "result": "increased in the submaximal range in a dose dependent manner"}, {"measurement": "force-velocity relationship", "setting": "[1]; at 30 Hz", "result": "increased across all velocities in a dose and velocity dependent manner"}, {"measurement": "power output", "setting": "[1]; corresponding to force velocities at 30 Hz", "result": "dose-dependent increase"}, {"measurement": "isometric force frequency relationship", "setting": "[1]; in situ", "result": "increased in the submaximal range in a dose dependent manner"}, {"measurement": "stimulation frequency to generate the same total work", "setting": "[1]; isokinetic fatigue protocol at 50% of maximum isokinetic tension, 300 second period", "result": "~50 % of vehicle stimulation frequency"}, {"measurement": "more total work over the 300 second period", "setting": "[1]; isokinetic fatigue protocol, 1 flexion per second at 3.1 radians/s, 30 Hz, vs vehicle", "result": 105, "unit": "%"}]}
{"compound": "O=C1CN(/N=C/c2ccc(-c3ccc([N+](=O)[O-])cc3)o2)C(O)=N1", "note": "[dantrolene]", "values": [{"measurement": "tetanic tension and fatigue development", "setting": "mouse EDL muscle; 20 μM", "result": "decreased early tetanic tension yet abolished overall fatigue development"}]}
{"compound": "Cn1c(=O)c2c(ncn2C)n(C)c1=O", "note": "[caffeine, reference compound]", "values": [{"measurement": "running time vs vehicle", "setting": "healthy rats", "result": "no significant difference"}, {"measurement": "tetanic tension and muscle fatigue", "setting": "mouse EDL muscle; repeated 60 Hz stimulation over 6 minutes", "result": "increased initial tetanic EDL tension but accelerated and accentuated muscle fatigue"}]}
{"compound": "NC(=O)c1ccn(-c2cnc(NCC3(c4ncccc4F)CC(F)C3)nc2)c1", "note": "(stereo not drawn) [Compound C, 1-(2-(((trans)-3-fluoro-1-(3-fluoropyridin-2-yl)cyclobutyl)methylamino)pyrimidin-5-yl)-1H-pyrrole-3-carboxamide]", "values": [{"measurement": "increase of rotarod running time compared to vehicle treatment", "setting": "LAD-HF rats; 10 mg/kg PO", "result": "approximately 2.5 fold"}, {"measurement": "rotarod running time (mean±S.E.)", "setting": "LAD-HF rats; 10 mg/kg PO 30 minutes prior, vehicle 111±32", "result": "277 ± 32", "unit": "s"}, {"measurement": "[Plasma]", "setting": "[2]; 0.01 mg/kg", "result": 0.003, "unit": "µM"}, {"measurement": "[Plasma]", "setting": "[2]; 0.03 mg/kg", "result": 0.007, "unit": "µM"}, {"measurement": "[Plasma]", "setting": "[2]; 0.1 mg/kg", "result": 0.024, "unit": "µM"}, {"measurement": "[Plasma]", "setting": "[2]; 0.3 mg/kg", "result": 0.083, "unit": "µM"}, {"measurement": "[Plasma]", "setting": "[2]; 1 mg/kg", "result": 0.204, "unit": "µM"}, {"measurement": "[Plasma]", "setting": "[2]; 3 mg/kg", "result": 0.478, "unit": "µM"}, {"measurement": "[Plasma]", "setting": "[2]; 10 mg/kg", "result": 1.95, "unit": "µM"}, {"measurement": "[Plasma]", "setting": "[2]; 30 mg/kg", "result": 3.64, "unit": "µM"}, {"measurement": "[Plasma]", "setting": "[2]; 100 mg/kg", "result": 28.0, "unit": "µM"}, {"measurement": "response to low frequency stimulation", "setting": "[3]", "result": "increased response to low frequency stimulation in both groups"}, {"measurement": "Ca2+ sensitivity", "setting": "[4]", "result": "significantly increased Ca^2+ sensitivity"}, {"measurement": "diaphragm force", "setting": "[5]", "result": "significantly increased force"}, {"measurement": "force-Ca2+ relationship", "setting": "sham and HF EDL fibers", "result": "leftward shift in the force-Ca^2+ relationship"}]}
